# Values quoted from earlier work, collected in patent US20080124279A1, “Colonic delivery using Zn/pectin beads with a Eudragit coating” (priority 2006, published 2008).
# Where two headings read alike, the source gives them in different places.
# Key:
# L-1(wt) = L-1(wt) (Stenotrophomonas maltophilia, UniProt P52700)
# VIM-2 = VIM-2 (Escherichia coli, UniProt Q5U7L7)
# IMP-1 = IMP-1 (Serratia marcescens, UniProt P52699)
# Sequence of IMP-1 (P52699 19-246 limits assumed): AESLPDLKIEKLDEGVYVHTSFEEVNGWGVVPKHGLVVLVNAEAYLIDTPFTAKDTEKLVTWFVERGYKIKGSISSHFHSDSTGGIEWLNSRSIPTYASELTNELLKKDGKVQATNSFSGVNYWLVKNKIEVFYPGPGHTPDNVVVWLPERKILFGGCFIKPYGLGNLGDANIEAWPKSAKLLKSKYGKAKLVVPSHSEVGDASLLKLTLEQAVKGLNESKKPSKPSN
# Sequence of L-1(wt) (P52700 34-290): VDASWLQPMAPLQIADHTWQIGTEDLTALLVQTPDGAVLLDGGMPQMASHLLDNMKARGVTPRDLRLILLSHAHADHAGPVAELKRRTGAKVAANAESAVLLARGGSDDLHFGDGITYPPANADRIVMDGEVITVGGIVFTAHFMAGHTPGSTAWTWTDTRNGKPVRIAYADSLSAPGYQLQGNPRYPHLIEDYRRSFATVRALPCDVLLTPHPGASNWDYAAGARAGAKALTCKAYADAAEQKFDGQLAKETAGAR
Structure (SMILES),Kcat (L-1(wt)),Km (L-1(wt)),Kcat (VIM-2),Km (VIM-2),Kcat (FEZ-1),Km (FEZ-1),Km (VIM-2; read-out: Km),Kcat (IMP-1),Km (IMP-1; read-out: Km),Km (IMP-1)
CO[C@@]1(NC(=O)Cc2cccs2)C(=O)N2C(C(=O)O)=C(COC(N)=O)CS[C@@H]21 [Cefoxitin],1 s⁻¹,3 µM,15 s⁻¹,13 µM,–,–,–,–,–,–
O=C(O)[C@H]1/C(=C/CO)O[C@@H]2CC(=O)N21 [Clavulanic Acid],11 s⁻¹,22 µM,–,–,<0.01 s⁻¹,> 1000 µM,–,–,–,–
CO/N=C(\C(=O)N[C@@H]1C(=O)N2C(C(=O)O)=C(COC(N)=O)CS[C@H]12)c1ccco1 [Cefuroxin],–,–,8 s⁻¹,–,–,–,20 µM,–,–,–
CC1(C)S[C@@H]2[C@H](NC(=O)[C@H](NC(=O)N3CCN(S(C)(=O)=O)C3=O)c3ccccc3)C(=O)N2[C@H]1C(=O)O [Mezlocillin],–,–,200 s⁻¹,125 µM,–,–,–,–,–,–
C[C@]1(Cn2ccnn2)[C@H](C(=O)O)N2C(=O)C[C@H]2S1(=O)=O [Tazobactam],–,–,28 s⁻¹,875 µM,40 s⁻¹,700 µM,–,–,–,–
CO/N=C(\C(=O)N[C@@H]1C(=O)N2C(C(=O)O)=C(COC(C)=O)CS[C@H]12)c1csc(N)n1 [Cefotaxim],270 s⁻¹,10 µM,70 s⁻¹,–,165 s⁻¹,70 µM,12 µM,1.3 s⁻¹,4 µM,–
CC1(C)[C@H](C(=O)O)N2C(=O)C[C@H]2S1(=O)=O [Sulbactam],–,–,23 s⁻¹,–,–,–,320 µM,–,–,–
CC1(C)S[C@@H]2[C@H](NC(=O)Cc3ccccc3)C(=O)N2[C@H]1C(=O)O [Benzylpenicillin],600 s⁻¹,38 µM,56 s⁻¹,49 µM,70 s⁻¹,590 µM,–,320 s⁻¹,–,520 µM
CO/N=C(\C(=O)N[C@@H]1C(=O)N2C(C(=O)[O-])=C(C[N+]3(C)CCCC3)CS[C@H]12)c1csc(N)n1 [Cefepim],–,–,>40 s⁻¹,–,>6 s⁻¹,> 1000 µM,> 400 µM,7 s⁻¹,11 µM,–
C[C@@H](O)[C@H]1C(=O)N2C(C(=O)[O-])=C(SC3Cn4cnc[n+]4C3)[C@H](C)[C@H]12 (stereo partly drawn) [Biapenem],134 s⁻¹,32 µM,8.5 s⁻¹,15 µM,70 s⁻¹,> 1000 µM,–,160 s⁻¹,–,28 µM
C[C@H]1[C@H](NC(=O)/C(=N\OC(C)(C)C(=O)O)c2csc(N)n2)C(=O)N1S(=O)(=O)O [Aztreonam],–,–,<0.01 s⁻¹,> 1000 µM,–,–,–,>0.01 s⁻¹,–,> 1000 µM
CC1(C)S[C@@H]2[C@H](NC(=O)[C@H](C(=O)O)c3ccsc3)C(=O)N2[C@H]1C(=O)O [Ticarcillin],–,–,180 s⁻¹,125 µM,>65 s⁻¹,> 5000 µM,–,1.1 s⁻¹,–,740 µM
CO/N=C(\C(=O)N[C@@H]1C(=O)N2C(C(=O)[O-])=C(C[n+]3cccc4c3CCC4)CS[C@H]12)c1csc(N)n1 [Cefpirom],–,–,180 s⁻¹,–,–,–,180 µM,9 s⁻¹,14 µM,–
CC1(C)S[C@@H]2[C@H](NC(=O)C(C(=O)O)c3ccccc3)C(=O)N2[C@H]1C(=O)O (stereo partly drawn) [Cabenicillin],–,–,185 s⁻¹,–,35 s⁻¹,1600 µM,205 µM,–,–,–
NC(=O)OC[C@@H]1[C@H](NC(=O)/C(=N\OCC(=O)O)c2csc(N)n2)C(=O)N1S(=O)(=O)O [Carumonam],–,–,–,–,–,–,–,>0.01 s⁻¹,–,> 1000 µM
CO[C@@]1(NC(=O)C(C(=O)O)c2ccc(O)cc2)C(=O)N2C(C(=O)O)=C(CSc3nnnn3C)CO[C@@H]21 (stereo partly drawn) [Moxalactam],–,–,90 s⁻¹,55 µM,3 s⁻¹,18 µM,–,–,–,–
CC1(C)S[C@@H]2[C@H](NC(=O)[C@H](NC(=O)N3CCNC3=O)c3ccccc3)C(=O)N2[C@H]1C(=O)O [Azlocillin],–,–,200 s⁻¹,200 µM,–,–,–,–,–,–
C[C@@H](O)[C@H]1C(=O)N2C(C(=O)O)=C(SCCN=CN)C[C@H]12 [Imipenem],–,57 µM,–,9 µM,–,–,–,–,–,39 µM
O=C(Cc1cccs1)N[C@@H]1C(=O)N2C(C(=O)O)=C(/C=C/c3ccc([N+](=O)[O-])cc3[N+](=O)[O-])CS[C@H]12 [Nitrocefin],41 s⁻¹,4 µM,770 s⁻¹,18 µM,90 s⁻¹,100 µM,–,63 s⁻¹,–,–
C[C@@H](O)[C@H]1C(=O)N2C(C(=O)O)=C(S[C@@H]3CN[C@H](C(=O)N(C)C)C3)[C@H](C)[C@H]12 [Meropenem],157 s⁻¹,15 µM,5 s⁻¹,2 µM,–,–,–,–,–,–
CC1(C)S[C@@H]2[C@H](NC(=O)[C@H](N)c3ccccc3)C(=O)N2[C@H]1C(=O)O [Ampicillin],520 s⁻¹,55 µM,–,90 µM,>5.5 s⁻¹,> 5000 µM,–,950 s⁻¹,–,200 µM
CCN1CCN(C(=O)N[C@@H](C(=O)N[C@@H]2C(=O)N3[C@@H]2SC(C)(C)[C@@H]3C(=O)O)c2ccccc2)C(=O)C1=O [Pipericillin],–,–,300 s⁻¹,–,50 s⁻¹,4200 µM,125 µM,–,–,–
CC(C)(O/N=C(\C(=O)N[C@@H]1C(=O)N2C(C(=O)[O-])=C(C[n+]3ccccc3)CS[C@H]12)c1csc(N)n1)C(=O)O [Ceftazidin],–,–,3.6 s⁻¹,–,–,–,72 µM,8 s⁻¹,44 µM,–
CC(=O)OCC1=C(C(=O)O)N2C(=O)[C@@H](NC(=O)Cc3cccs3)[C@H]2SC1 [Cephalothin],82 s⁻¹,8.9 µM,130 s⁻¹,11 µM,–,–,–,48 s⁻¹,–,–
CO[C@@]1(NC(=O)C(C(=O)O)c2ccsc2)C(=O)N2[C@@H](C(=O)O)C(C)(C)S[C@@H]21 (stereo partly drawn) [Timocillin],–,–,7.7 s⁻¹,–,–,–,390 µM,–,> 2000 µM,–
O=C(Cc1cccs1)N[C@@H]1C(=O)N2C(C(=O)[O-])=C(C[n+]3ccccc3)CS[C@H]12 [Cephaloridin],–,–,140 s⁻¹,–,16 s⁻¹,1000 µM,50 µM,53 s⁻¹,22 µM,–
